Data: US20090227607A1, “DEAZAPURINES USEFUL AS INHIBITORS OF JANUS KINASES” (priority 2006, published 2009)

Assays:
JAK-2 enzyme = JAK-2 enzyme (Homo sapiens, UniProt O60674); assay: JAK2 Inhibition Assay; assay type: biochemical; details: 15 μM poly(Glu)4Tyr, 12 μM ATP, 25° C.
Procedure: (§1) Compounds were screened for their ability to inhibit JAK3 using the assay shown below. Reactions were carried out in a kinase buffer containing 100 mM HEPES (pH 7.4), 1 mM DTT, 10 mM MgCl2, 25 mM NaCl, and 0.01% BSA. Substrate concentrations in the assay were 5 μM ATP (200 uCi/μmole ATP) and 1 μM poly(Glu)4Tyr. Reactions were carried out at 25° C. and 1 nM JAK3.
(§2) To each well of a 96 well polycarbonate plate was added 1.5 μl of a candidate JAK3 inhibitor along with 50 μl of kinase buffer containing 2 μM poly(Glu)4Tyr and […]. This was then mixed and […] of kinase buffer containing 2 nM JAK3 enzyme was added to start the reaction. After 20 minutes at room temperature (25° C.), the reaction was stopped with 50 μl of 20% trichloroacetic acid (TCA) that also contained 0.4 mM ATP. The entire contents of each well were then transferred to a 96 well glass fiber filter plate using a TomTek Cell Harvester. After washing, 60 μl of scintillation fluid was added and ^33P incorporation detected on a Perkin Elmer TopCount.
The assays were as described above in Example 36 except that JAK-2 enzyme was used, the final poly(Glu)4Tyr concentration was 15 μM, and final ATP concentration was 12 μM.
(§3) Tables 5 and 6 depict enzyme inhibition data (Ki) for certain exemplary compounds. Compound numbers in Tables 5 and 6 correspond to those compounds depicted in Tables 1 and 2, respectively.

JAK3 = target: T1, JAK3 (Homo sapiens, UniProt P52333); assay: JAK3 Inhibition Assay; assay type: biochemical; details: 1 μM poly(Glu)4Tyr, 5 μM ATP, 1 nM JAK3, 25° C.; read-out: JAK3 enzyme inhibition data (Ki)
T1 sequence (P52333 1-1124): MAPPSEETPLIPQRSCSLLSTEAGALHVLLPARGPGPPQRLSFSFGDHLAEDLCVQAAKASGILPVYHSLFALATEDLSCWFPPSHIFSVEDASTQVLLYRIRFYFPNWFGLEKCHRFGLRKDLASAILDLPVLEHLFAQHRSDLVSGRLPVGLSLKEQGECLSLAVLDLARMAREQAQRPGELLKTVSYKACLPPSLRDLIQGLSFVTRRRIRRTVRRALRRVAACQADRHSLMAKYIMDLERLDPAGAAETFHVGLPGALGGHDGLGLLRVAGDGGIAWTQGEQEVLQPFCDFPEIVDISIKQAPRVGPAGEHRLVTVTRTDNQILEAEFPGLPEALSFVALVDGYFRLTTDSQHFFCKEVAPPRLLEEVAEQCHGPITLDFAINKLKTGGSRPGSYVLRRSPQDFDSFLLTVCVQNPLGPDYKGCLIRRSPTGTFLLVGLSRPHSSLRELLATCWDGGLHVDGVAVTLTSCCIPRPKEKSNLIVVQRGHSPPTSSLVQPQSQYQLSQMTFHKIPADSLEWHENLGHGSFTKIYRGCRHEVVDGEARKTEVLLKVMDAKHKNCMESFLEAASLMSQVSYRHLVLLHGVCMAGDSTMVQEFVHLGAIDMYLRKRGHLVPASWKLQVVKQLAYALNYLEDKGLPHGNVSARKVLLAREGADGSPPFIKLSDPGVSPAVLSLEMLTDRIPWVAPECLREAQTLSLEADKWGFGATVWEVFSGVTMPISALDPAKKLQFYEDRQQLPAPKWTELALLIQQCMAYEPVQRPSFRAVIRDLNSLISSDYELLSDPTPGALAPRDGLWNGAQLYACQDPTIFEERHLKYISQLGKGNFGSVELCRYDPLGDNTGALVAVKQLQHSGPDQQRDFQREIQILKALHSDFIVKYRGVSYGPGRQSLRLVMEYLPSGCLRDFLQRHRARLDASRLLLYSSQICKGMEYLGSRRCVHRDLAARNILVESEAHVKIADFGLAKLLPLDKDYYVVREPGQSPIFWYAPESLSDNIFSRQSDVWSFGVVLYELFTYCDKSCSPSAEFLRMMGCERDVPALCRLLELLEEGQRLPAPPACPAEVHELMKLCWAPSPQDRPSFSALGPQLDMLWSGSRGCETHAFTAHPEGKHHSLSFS
Procedure: as §1, §2, §3

Sequence of JAK-2 enzyme (O60674 whole entry, species assumed): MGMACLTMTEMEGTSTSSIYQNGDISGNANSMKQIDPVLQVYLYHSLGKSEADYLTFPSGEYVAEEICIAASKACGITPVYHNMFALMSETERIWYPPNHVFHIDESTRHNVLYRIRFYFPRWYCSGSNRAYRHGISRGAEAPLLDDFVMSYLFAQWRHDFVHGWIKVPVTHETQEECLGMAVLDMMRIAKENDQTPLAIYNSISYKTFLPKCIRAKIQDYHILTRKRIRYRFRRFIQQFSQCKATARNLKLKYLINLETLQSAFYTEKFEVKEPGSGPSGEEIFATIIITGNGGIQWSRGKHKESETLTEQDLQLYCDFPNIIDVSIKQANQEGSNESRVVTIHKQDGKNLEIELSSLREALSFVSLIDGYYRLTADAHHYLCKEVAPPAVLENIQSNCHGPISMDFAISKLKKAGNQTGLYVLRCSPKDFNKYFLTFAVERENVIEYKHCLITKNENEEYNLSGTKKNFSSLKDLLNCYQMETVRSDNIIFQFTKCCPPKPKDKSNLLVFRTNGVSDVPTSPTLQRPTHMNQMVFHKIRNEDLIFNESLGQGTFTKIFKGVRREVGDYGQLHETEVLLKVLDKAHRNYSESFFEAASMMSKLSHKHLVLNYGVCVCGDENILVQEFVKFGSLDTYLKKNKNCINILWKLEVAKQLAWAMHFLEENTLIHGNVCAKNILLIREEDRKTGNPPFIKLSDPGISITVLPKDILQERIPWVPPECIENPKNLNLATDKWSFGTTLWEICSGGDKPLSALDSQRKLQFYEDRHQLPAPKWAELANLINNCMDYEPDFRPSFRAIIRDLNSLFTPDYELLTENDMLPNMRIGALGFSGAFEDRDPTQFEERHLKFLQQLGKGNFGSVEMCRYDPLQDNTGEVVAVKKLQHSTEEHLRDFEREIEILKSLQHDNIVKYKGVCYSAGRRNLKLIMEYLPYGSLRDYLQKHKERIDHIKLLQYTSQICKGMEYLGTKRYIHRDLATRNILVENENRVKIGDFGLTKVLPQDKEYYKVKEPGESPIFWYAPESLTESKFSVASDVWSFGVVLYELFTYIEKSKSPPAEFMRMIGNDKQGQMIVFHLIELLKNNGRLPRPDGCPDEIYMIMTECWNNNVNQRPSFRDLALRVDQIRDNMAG

Structure (SMILES)	Ki (JAK-2 enzyme) [µM]	Ki (JAK3) [µM]
O=C(Nc1nc(-c2ncnc3[nH]ccc23)cs1)C1CCC1 [Compound 57]	< 0.1	< 0.1
CC1CC1C(=O)Nc1nc(-c2ncnc3[nH]ccc23)cs1 (stereo not drawn) [Compound 58]	< 0.1	< 0.1
O=C(Nc1nc(-c2ncnc3[nH]ccc23)cs1)C1CC=CC1 [Compound 59]	< 0.1	< 0.1
O=C(Nc1nc(-c2ncnc3[nH]ccc23)cs1)C1CCCC1O (stereo not drawn) [Compound 60]	< 0.1	< 0.1
O=C(Nc1nc(-c2ncnc3[nH]ccc23)cs1)C1CCOCC1 [Compound 61]	< 0.1	< 0.1
CC1CCC(C(=O)Nc2nc(-c3ncnc4[nH]ccc34)cs2)CC1 (stereo not drawn) [Compound 62]	< 0.1	0.1 to 0.5
COC1CCCC(C(=O)Nc2nc(-c3ncnc4[nH]ccc34)cs2)C1 (stereo not drawn) [Compound 63]	< 0.1	0.1 to 0.5
O=C(CC(F)(F)F)Nc1nc(-c2ncnc3[nH]ccc23)cs1 [Compound 64]	< 0.1	< 0.1
O=C1CCC(C(=O)Nc2nc(-c3ncnc4[nH]ccc34)cs2)CC1 [Compound 65]	< 0.1	< 0.1
CC(C)(C)CC(=O)Nc1nc(-c2ncnc3[nH]ccc23)cs1 [Compound 66]	< 0.1	< 0.1
O=C(CCC1CCCC1)Nc1nc(-c2ncnc3[nH]ccc23)cs1 [Compound 67]	< 0.1	< 0.1
O=C(CCc1ccccc1)Nc1nc(-c2ncnc3[nH]ccc23)cs1 [Compound 68]	< 0.1	< 0.1
C=CCCC(=O)Nc1nc(-c2ncnc3[nH]ccc23)cs1 [Compound 69]	< 0.1	< 0.1
O=C(CC1CC1)Nc1nc(-c2ncnc3[nH]ccc23)cs1 [Compound 70]	< 0.1	< 0.1
CC(=O)CCC(=O)Nc1nc(-c2ncnc3[nH]ccc23)cs1 [Compound 71]	< 0.1	0.1 to 0.5
CC(C)CCC(=O)Nc1nc(-c2ncnc3[nH]ccc23)cs1 [Compound 72]	< 0.1	< 0.1
CC(C(=O)NC1CC1)n1cc(-c2ncnc3[nH]ccc23)cn1 (stereo not drawn) [Compound 73]	0.1 to 0.5	0.1 to 0.5
CC(C)CNC(=O)C(C)n1cc(-c2ncnc3[nH]ccc23)cn1 (stereo not drawn) [Compound 74]	0.1 to 0.5	< 0.1
CC(C(=O)NC1CCCC1)n1cc(-c2ncnc3[nH]ccc23)cn1 (stereo not drawn) [Compound 75]	0.1 to 0.5	< 0.1
CC(C(=O)NCC1CCCO1)n1cc(-c2ncnc3[nH]ccc23)cn1 (stereo not drawn) [Compound 76]	0.5 to 5	0.5 to 5
CC(C(=O)N(C)C)n1cc(-c2ncnc3[nH]ccc23)cn1 (stereo not drawn) [Compound 77]	0.1 to 0.5	0.5 to 5
CC(C)NC(=O)C(C)n1cc(-c2ncnc3[nH]ccc23)cn1 (stereo not drawn) [Compound 78]	0.1 to 0.5	0.1 to 0.5
CC(CO)NC(=O)C(C)n1cc(-c2ncnc3[nH]ccc23)cn1 (stereo not drawn) [Compound 79]	0.5 to 5	0.1 to 0.5
CC(O)CNC(=O)C(C)n1cc(-c2ncnc3[nH]ccc23)cn1 (stereo not drawn) [Compound 80]	0.5 to 5	0.1 to 0.5
COCCNC(=O)C(C)n1cc(-c2ncnc3[nH]ccc23)cn1 (stereo not drawn) [Compound 81]	0.5 to 5	0.5 to 5
CCC(CO)NC(=O)C(C)n1cc(-c2ncnc3[nH]ccc23)cn1 (stereo not drawn) [Compound 82]	0.1 to 0.5	0.1 to 0.5
CCC(O)CNC(=O)C(C)n1cc(-c2ncnc3[nH]ccc23)cn1 (stereo not drawn) [Compound 83]	0.5 to 5	0.1 to 0.5

Structure (SMILES)	Ki (JAK-2 enzyme) [µM]	Ki (JAK3) [µM]
CSCCNC(=O)C(C)n1cc(-c2ncnc3[nH]ccc23)cn1 (stereo not drawn) [Compound 84]	0.1 to 0.5	0.1 to 0.5
CC(C)OCCNC(=O)C(C)n1cc(-c2ncnc3[nH]ccc23)cn1 (stereo not drawn) [Compound 85]	0.5 to 5	0.5 to 5
CC(C(=O)NCc1ccccc1)n1cc(-c2ncnc3[nH]ccc23)cn1 (stereo not drawn) [Compound 86]	0.1 to 0.5	0.1 to 0.5
CC(C(=O)N1CCCC1)n1cc(-c2ncnc3[nH]ccc23)cn1 (stereo not drawn) [Compound 87]	0.1 to 0.5	0.1 to 0.5
CCN(CC)C(=O)C(C)n1cc(-c2ncnc3[nH]ccc23)cn1 (stereo not drawn) [Compound 88]	0.1 to 0.5	< 0.1
CC(C(=O)NCc1cccn1C)n1cc(-c2ncnc3[nH]ccc23)cn1 (stereo not drawn) [Compound 89]	< 0.1	0.1 to 0.5
CCCNC(=O)C(C)n1cc(-c2ncnc3[nH]ccc23)cn1 (stereo not drawn) [Compound 90]	0.1 to 0.5	< 0.1
CC(C(=O)NCC(F)(F)F)n1cc(-c2ncnc3[nH]ccc23)cn1 (stereo not drawn) [Compound 91]	< 0.1	< 0.1
CCCCC(CC)n1cc(-c2ncnc3[nH]ccc23)cn1 (stereo not drawn) [Compound 92]	< 0.1	< 0.1
CCCCC(C)n1cc(-c2ncnc3[nH]ccc23)cn1 (stereo not drawn) [Compound 93]	< 0.1	< 0.1
CCCC(CC)n1cc(-c2ncnc3[nH]ccc23)cn1 (stereo not drawn) [Compound 94, 4-(1-(hexan-3-yl)-1H-pyrazol-4-yl)-7H-pyrrolo[2,3-d]pyrimidine]	< 0.1	< 0.1
O=C(CCC1CC1)Nc1nc(-c2ncnc3[nH]ccc23)cs1 [Compound 96]	< 0.1	< 0.1
COC(C)C(=O)Nc1nc(-c2ncnc3[nH]ccc23)cs1 (stereo not drawn) [Compound 97]	< 0.1	0.1 to 0.5
CCC(C)CC(=O)Nc1nc(-c2ncnc3[nH]ccc23)cs1 (stereo not drawn) [Compound 98]	< 0.1	< 0.1
O=C(CCC(F)(F)F)Nc1nc(-c2ncnc3[nH]ccc23)cs1 [Compound 99]	< 0.1	< 0.1
O=C(Nc1nc(-c2ncnc3[nH]ccc23)cs1)C(O)C(F)(F)F (stereo not drawn) [Compound 100]	< 0.1	< 0.1
O=C(Nc1nc(-c2ncnc3[nH]ccc23)cs1)C(O)c1ccccc1 (stereo not drawn) [Compound 101]	< 0.1	< 0.1
CC(CC(F)(F)F)C(=O)Nc1nc(-c2ncnc3[nH]ccc23)cs1 (stereo not drawn) [Compound 102]	< 0.1	< 0.1
CCCN(C(=O)CC(C)C)c1nc(-c2ncnc3[nH]ccc23)cs1 [Compound 103, 3-Methyl-N-propyl-N-[4-(7H-pyrrolo[2,3-d]pyrimidin-4-yl)-thiazol-2-yl]-butyramide]	< 0.1	< 0.1
CCN(C(=O)CC(C)C)c1nc(-c2ncnc3[nH]ccc23)cs1 [Compound 104]	< 0.1	< 0.1
CC(C)CC(=O)N(C)c1nc(-c2ncnc3[nH]ccc23)cs1 [Compound 105]	< 0.1	< 0.1
CCCn1cc(-c2ncnc3[nH]ccc23)cn1 [Compound 106]	< 0.1	0.1 to 0.5
CC(C)CCn1cc(-c2ncnc3[nH]ccc23)cn1 [Compound 107]	< 0.1	0.1 to 0.5
O=C(c1cc(-c2ncnc3[nH]ccc23)c[nH]1)N(CCC(F)(F)F)Cc1ccccc1 [Compound 108]	< 0.1	< 0.1
O=C(c1cc(-c2ncnc3[nH]ccc23)c[nH]1)N(CC1CC1)CC(F)(F)F [Compound 109]	< 0.1	< 0.1
N#CCN(Cc1ccccc1)C(=O)c1cc(-c2ncnc3[nH]ccc23)c[nH]1 [Compound 111]	< 0.1	< 0.1
N#CCN(Cc1ccc(F)cc1)C(=O)c1cc(-c2ncnc3[nH]ccc23)c[nH]1 [Compound 112]	< 0.1	< 0.1
